Measured values from PubChem BioAssay AID2060511 (Molecular Pharmacology Branch, DTP, NCI, 2025).

System: 422866-222-R5-J1-PDC spheroids with HUVEC/MSC, viability
Assay: Anticancer human tumor 422866-222-R5-J1-PDC patient-derived pancreatic adenocarcinoma cell line growth inhibition [GQUAD]
Conditions: for IC50: curve of first compound; for viability, T/C: stronger effect = lower value
Method in brief: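 Multi-cell-type spheroids of tumor cells with HUVEC and mesenchymal stem cells, treated with drug combinations. Concentrations descend in half-log steps from near clinical Cmax, or from 10 microM where Cmax is unknown; viability read-out.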

[1] = second compound 0.0316 µM, first compound 0.0316 µM
[2] = second compound 0.0316 µM, first compound 0.1 µM
[3] = second compound 0.0316 µM, first compound 0.316 µM
[4] = second compound 0.0316 µM, first compound 1 µM
[5] = second compound 0.0316 µM, first compound 3.16 µM
[6] = second compound 0.0316 µM, first compound 10 µM
[7] = second compound 0.1 µM, first compound 0.0316 µM
[8] = second compound 0.1 µM, first compound 0.1 µM
[9] = second compound 0.1 µM, first compound 0.316 µM
[10] = second compound 0.1 µM, first compound 1 µM
[11] = second compound 0.1 µM, first compound 3.16 µM
[12] = second compound 0.1 µM, first compound 10 µM
[13] = second compound 0.316 µM, first compound 0.0316 µM
[14] = second compound 0.316 µM, first compound 0.1 µM
[15] = second compound 0.316 µM, first compound 0.316 µM
[16] = second compound 0.316 µM, first compound 1 µM
[17] = second compound 0.316 µM, first compound 3.16 µM
[18] = second compound 0.316 µM, first compound 10 µM
[19] = second compound 1 µM, first compound 0.0316 µM
[20] = second compound 1 µM, first compound 0.1 µM
[21] = second compound 1 µM, first compound 0.316 µM
[22] = second compound 1 µM, first compound 1 µM
[23] = second compound 1 µM, first compound 3.16 µM
[24] = second compound 1 µM, first compound 10 µM
[25] = second compound 3.16 µM, first compound 0.0316 µM
[26] = second compound 3.16 µM, first compound 0.1 µM
[27] = second compound 3.16 µM, first compound 0.316 µM
[28] = second compound 3.16 µM, first compound 1 µM
[29] = second compound 3.16 µM, first compound 3.16 µM
[30] = second compound 3.16 µM, first compound 10 µM
[31] = second compound 10 µM, first compound 0.0316 µM
[32] = second compound 10 µM, first compound 0.1 µM
[33] = second compound 10 µM, first compound 0.316 µM
[34] = second compound 10 µM, first compound 1 µM
[35] = second compound 10 µM, first compound 3.16 µM
[36] = second compound 10 µM, first compound 10 µM
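Further: spheroids exposed to compounds for seven days before reading.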
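Wherever viability, T/C is given: percent viability relative to DMSO vehicle control taken as 100%.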

CC(C)n1c(=O)n(C)c2cnc3cc(F)c(-c4ccc(OCCCN5CCCCC5)nc4)cc3c21 + Cc1[nH]c2ccc(F)cc2c1-c1nc2c3cccnc3c3ncccc3c2[nH]1
IC50 (second compound 0.0316 µM): > 10 µM
IC50 (second compound 0.1 µM): > 10 µM
IC50 (second compound 0.316 µM): > 10 µM
IC50 (second compound 1 µM): > 10 µM
IC50 (second compound 3.16 µM): > 10 µM
IC50 (second compound 10 µM): > 10 µM
viability, T/C [1]: 86.9%
viability, T/C [2]: 99.4%
viability, T/C [3]: 94%
viability, T/C [4]: 91.1%
viability, T/C [5]: 89.2%
viability, T/C [6]: 52%
viability, T/C [7]: 99.4%
viability, T/C [8]: 114%
viability, T/C [9]: 112%
viability, T/C [10]: 83.2%
viability, T/C [11]: 113%
viability, T/C [12]: 73.5%
viability, T/C [13]: 93.8%
viability, T/C [14]: 90.6%
viability, T/C [15]: 102%
viability, T/C [16]: 92.1%
viability, T/C [17]: 92.2%
viability, T/C [18]: 68.5%
viability, T/C [19]: 95.4%
viability, T/C [20]: 89.2%
viability, T/C [21]: 91.3%
viability, T/C [22]: 91.9%
viability, T/C [23]: 117%
viability, T/C [24]: 64.9%
viability, T/C [25]: 78.3%
viability, T/C [26]: 88.2%
viability, T/C [27]: 105%
viability, T/C [28]: 94.7%
viability, T/C [29]: 98%
viability, T/C [30]: 63.9%
viability, T/C [31]: 73%
viability, T/C [32]: 95.1%
viability, T/C [33]: 91.7%
viability, T/C [34]: 80.9%
viability, T/C [35]: 85.2%
viability, T/C [36]: 54.5%

CC1COCCN1c1cc(-c2ccnn2C)c2ccnc(-c3ccn[nH]3)c2n1 (centres undefined) + Cc1[nH]c2ccc(F)cc2c1-c1nc2c3cccnc3c3ncccc3c2[nH]1
IC50 (second compound 0.0316 µM): > 10 µM
IC50 (second compound 0.1 µM): > 10 µM
IC50 (second compound 0.316 µM): > 10 µM
IC50 (second compound 1 µM): 0.0316 µM
IC50 (second compound 3.16 µM): 0.0316 µM
IC50 (second compound 10 µM): 0.0316 µM
viability, T/C [1]: 84.4%
viability, T/C [2]: 58.8%
viability, T/C [3]: 46.1%
viability, T/C [4]: 42%
viability, T/C [5]: 52.8%
viability, T/C [6]: 87.2%
viability, T/C [7]: 83.3%
viability, T/C [8]: 64.9%
viability, T/C [9]: 41.6%
viability, T/C [10]: 33.7%
viability, T/C [11]: 50%
viability, T/C [12]: 93.7%
viability, T/C [13]: 101%
viability, T/C [14]: 58.1%
viability, T/C [15]: 45.3%
viability, T/C [16]: 36.8%
viability, T/C [17]: 66%
viability, T/C [18]: 75%
viability, T/C [19]: 80.9%
viability, T/C [20]: 51.9%
viability, T/C [21]: 41.1%
viability, T/C [22]: 37.5%
viability, T/C [23]: 75.3%
viability, T/C [24]: 86.6%
viability, T/C [25]: 60.6%
viability, T/C [26]: 55.9%
viability, T/C [27]: 41.5%
viability, T/C [28]: 42.6%
viability, T/C [29]: 73.2%
viability, T/C [30]: 91.5%
viability, T/C [31]: 62.8%
viability, T/C [32]: 57.8%
viability, T/C [33]: 43.1%
viability, T/C [34]: 47.1%
viability, T/C [35]: 82.8%
viability, T/C [36]: 84.2%
